# Measurements published in US6737383B1, “Herbicidal oxadiazolidines” (priority 1999, dated 2004).
# Legend:
# surinam grass = assay: Test B pre/postemergence surinam grass; assay type: in vivo, Brachiaria decumbens
# Outline: (§1)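 Test chemicals in a non-phytotoxic solvent mixture with surfactant were sprayed preemergence onto planted seeds and postemergence onto plants 2 to 18 cm tall (1- to 4-leaf stage). After twelve to sixteen days in a greenhouse, injury was visually rated against untreated controls from 0 (no effect) to 10 (complete control).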
# purple nutsedge = assay: Test B pre/postemergence purple nutsedge; assay type: in vivo, Cyperus rotundus
# Outline: as §1
# soybean = assay: Test B pre/postemergence soybean; assay type: in vivo, Glycine max
# Outline: as §1
# blackgrass = assay: Test B pre/postemergence blackgrass; assay type: in vivo, Alopecurus myosuroides
# Outline: as §1
# pigweed = assay: Test B pre/postemergence pigweed; assay type: in vivo, Amaranthus retroflexus
# Outline: as §1
# bedstraw = assay: Test B pre/postemergence bedstraw; assay type: in vivo, Galium aparine
# Outline: as §1
# sugar beet = assay: Test B pre/postemergence sugar beet; assay type: in vivo, Beta vulgaris
# Outline: as §1
# wild oat = assay: Test B pre/postemergence wild oat; assay type: in vivo, Avena fatua
# Outline: as §1
# corn = assay: Test B pre/postemergence corn; assay type: in vivo, Zea mays
# Outline: as §1
# cocklebur = assay: Test B pre/postemergence cocklebur; assay type: in vivo, Xanthium strumarium
# Outline: as §1
# giant foxtail = assay: Test B pre/postemergence giant foxtail; assay type: in vivo, Setaria faberii
# Outline: as §1
# velvetleaf = assay: Test B pre/postemergence velvetleaf; assay type: in vivo, Abutilon theophrasti
# Outline: as §1
# rice = assay: Test B flood test rice; assay type: in vivo, Oryza sativa
# Outline: (§2)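 Each value is a visual injury score relative to controls, with 10 meaning complete control and 0 no effect. Evaluation took place twelve to sixteen days after the 2-leaf-stage plants were treated and kept in the greenhouse.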
# bamyardgrass = assay: Test B flood test barnyardgrass; assay type: in vivo, Echinochloa crus-galli
# Outline: as §2
# crabgrass = assay: Test B pre/postemergence crabgrass; assay type: in vivo, Digitaria sanguinalis
# Outline: as §1
# smallflower flatsedge = assay: Test B flood test smallflower flatsedge; assay type: in vivo, Cyperus difformis
# Outline: as §2
# [1] = Preemergence, Rate 62 g/ha, scale of 0 to 10 where 0 is no effect and 10 is complete control
# [2] = Preemergence, Rate 125 g/ha, 0 is no effect, 10 is complete control
# [3] = Preemergence, Rate 250 g/ha, scale 0 to 10, 0 is no effect, 10 is complete control
# [4] = Preemergence, Rate 500 g/ha, scale of 0 to 10 where 0 is no effect and 10 is complete control
# [5] = Rate 62 g/ha, Postemergence, scale of 0 to 10 where 0 is no effect and 10 is complete control
# [6] = Rate 125 g/ha, Postemergence, scale 0 to 10
# [7] = Rate 500 g/ha, Postemergence, scale 0 to 10
# [8] = Rate 62 g/ha, Postemergence section, flood test species, scale of 0 to 10 where 0 is no effect and 10 is complete control
# [9] = Rate 125 g/ha, listed under Postemergence (flood test species), scale 0 to 10
# [10] = Rate 250 g/ha, Postemergence section, flood test species
# [11] = Rate 500 g/ha, listed under Postemergence (flood test species), scale 0 to 10
smiles,measurement,setting,value
C=C(C)CCn1c(=O)on(C(=O)N(c2ccc(F)cc2)C(C)C)c1=O [Compound 199],B. signalgrass plant response rating,surinam grass; [1],0
same,B. signalgrass plant response rating (0 to 10 scale),surinam grass; [2],1
same,B. signalgrass plant response rating,surinam grass; [3],6
same,"Plant response rating, B. signalgrass",surinam grass; [4],9
same,B. signalgrass plant response rating,surinam grass; [5],0
same,B. signalgrass plant response rating,"surinam grass; Rate 125 g/ha, Postemergence, scale 0 (no effect) to 10 (complete control)",0
same,"Plant response rating, B. signalgrass","surinam grass; Rate 250 g/ha, Postemergence, scale 0 to 10, 0 is no effect, 10 is complete control",0
same,Nutsedge plant response rating,purple nutsedge; [1],0
same,Nutsedge plant response rating (0 to 10 scale),purple nutsedge; [2],0
same,Nutsedge plant response rating,purple nutsedge; [3],0
same,"Plant response rating, Nutsedge",purple nutsedge; [4],10
same,Nutsedge plant response rating,purple nutsedge; [5],0
same,Nutsedge plant response rating,purple nutsedge; [6],0
same,"Plant response rating (0 to 10; 0 is no effect, 10 is complete control), Nutsedge","purple nutsedge; Rate 250 g/ha, Postemergence",0
same,Nutsedge plant response rating,purple nutsedge; [7],0
same,Soybean plant response rating,soybean; [1],0
same,Soybean plant response rating (0 to 10 scale),soybean; [2],0
same,Soybean plant response rating,soybean; [3],0
same,"Plant response rating, Soybean",soybean; [4],0
same,Soybean plant response rating,soybean; [5],2
same,Soybean plant response rating,soybean; [6],2
same,"Plant response rating (0 to 10; 0 is no effect, 10 is complete control), Soybean","soybean; Rate 250 g/ha, Postemergence",7
same,Soybean plant response rating,soybean; [7],7
same,Blackgrass plant response rating,blackgrass; [1],6
same,Blackgrass plant response rating (0 to 10 scale),blackgrass; [2],10
same,Blackgrass plant response rating,blackgrass; [3],10
same,"Plant response rating, Blackgrass",blackgrass; [4],10
same,Blackgrass plant response rating,blackgrass; [5],0
same,Blackgrass plant response rating,blackgrass; [6],4
same,"Plant response rating (0 to 10; 0 is no effect, 10 is complete control), Blackgrass","blackgrass; Rate 250 g/ha, Postemergence",9
same,Blackgrass plant response rating,blackgrass; [7],9
same,Redroot pigweed plant response rating,pigweed; [1],7
same,Redroot pigweed plant response rating (0 to 10 scale),pigweed; [2],7
same,Redroot pigweed plant response rating,pigweed; [3],10
same,"Plant response rating, Redroot pigweed",pigweed; [4],10
same,Redroot pigweed plant response rating,pigweed; [5],0
same,Redroot pigweed plant response rating,pigweed; [6],0
same,"Plant response rating (0 to 10; 0 is no effect, 10 is complete control), Redroot pigweed","pigweed; Rate 250 g/ha, Postemergence",2
same,Redroot pigweed plant response rating,pigweed; [7],6
same,Bedstraw plant response rating,bedstraw; [1],0
same,Bedstraw plant response rating (0 to 10 scale),bedstraw; [2],0
same,Bedstraw plant response rating,bedstraw; [3],0
same,"Plant response rating, Bedstraw",bedstraw; [4],0
same,Bedstraw plant response rating,bedstraw; [5],0
same,Bedstraw plant response rating,bedstraw; [6],0
same,"Plant response rating (0 to 10; 0 is no effect, 10 is complete control), Bedstraw","bedstraw; Rate 250 g/ha, Postemergence",0
same,Bedstraw plant response rating,bedstraw; [7],2
same,Sugarbeets plant response rating,sugar beet; [1],4
same,Sugarbeets plant response rating (0 to 10 scale),sugar beet; [2],5
same,Sugarbeets plant response rating,sugar beet; [3],5
same,"Plant response rating, Sugarbeets",sugar beet; [4],6
same,Sugarbeets plant response rating,sugar beet; [5],0
same,Sugarbeets plant response rating,sugar beet; [6],0
same,"Plant response rating (0 to 10; 0 is no effect, 10 is complete control), Sugarbeets","sugar beet; Rate 250 g/ha, Postemergence",0
same,Sugarbeets plant response rating,sugar beet; [7],2
same,Wild oats plant response rating,wild oat; [1],0
same,Wild oats plant response rating,wild oat; [3],4
same,"Plant response rating, Wild oats",wild oat; [4],7
same,Wild oats plant response rating,wild oat; [5],0
same,Wild oats plant response rating,wild oat; [6],0
same,"Plant response rating (0 to 10; 0 is no effect, 10 is complete control), Wild oats","wild oat; Rate 250 g/ha, Postemergence",0
same,Corn plant response rating,corn; [1],0
same,Corn plant response rating (0 to 10 scale),corn; [2],0
same,Corn plant response rating,corn; [3],0
same,"Plant response rating, Corn",corn; [4],0
same,Corn plant response rating,corn; [5],0
same,Corn plant response rating,corn; [6],0
same,"Plant response rating (0 to 10; 0 is no effect, 10 is complete control), Corn","corn; Rate 250 g/ha, Postemergence",0
same,Corn plant response rating,corn; [7],0
same,Cocklebur plant response rating,cocklebur; [1],0
same,Cocklebur plant response rating (0 to 10 scale),cocklebur; [2],0
same,Cocklebur plant response rating,cocklebur; [3],0
same,"Plant response rating, Cocklebur",cocklebur; [4],0
same,Cocklebur plant response rating,cocklebur; [5],0
same,Cocklebur plant response rating,cocklebur; [6],0
same,"Plant response rating (0 to 10; 0 is no effect, 10 is complete control), Cocklebur","cocklebur; Rate 250 g/ha, Postemergence",0
same,Cocklebur plant response rating,cocklebur; [7],3
same,Giant foxtail plant response rating,giant foxtail; [1],7
same,Giant foxtail plant response rating (0 to 10 scale),giant foxtail; [2],10
same,Giant foxtail plant response rating,giant foxtail; [3],10
same,"Plant response rating, Giant foxtail",giant foxtail; [4],10
same,Giant foxtail plant response rating,giant foxtail; [5],0
same,Giant foxtail plant response rating,giant foxtail; [6],2
same,"Plant response rating (0 to 10; 0 is no effect, 10 is complete control), Giant foxtail","giant foxtail; Rate 250 g/ha, Postemergence",2
same,Giant foxtail plant response rating,giant foxtail; [7],7
same,Velvetleaf plant response rating,velvetleaf; [1],0
same,Velvetleaf plant response rating,velvetleaf; [3],0
same,"Plant response rating, Velvetleaf",velvetleaf; [4],0
same,Velvetleaf plant response rating,velvetleaf; [5],0
same,Velvetleaf plant response rating,velvetleaf; [6],0
same,"Plant response rating (0 to 10; 0 is no effect, 10 is complete control), Velvetleaf","velvetleaf; Rate 250 g/ha, Postemergence",0
same,Rice plant response rating,rice; [8],0
same,Rice plant response rating,rice; [9],0
same,"Plant response rating (0 to 10; 0 is no effect, 10 is complete control), Rice",rice; [10],0
same,Rice plant response rating,rice; [11],0
same,Barnyardgrass plant response rating,bamyardgrass; [8],0
same,Barnyardgrass plant response rating,bamyardgrass; [9],0
same,"Plant response rating (0 to 10; 0 is no effect, 10 is complete control), Barnyardgrass",bamyardgrass; [10],0
same,Barnyardgrass plant response rating,bamyardgrass; [11],8
same,Crabgrass plant response rating,crabgrass; [1],6
same,Crabgrass plant response rating (0 to 10 scale),crabgrass; [2],6
same,Crabgrass plant response rating,crabgrass; [3],10
same,"Plant response rating, Crabgrass",crabgrass; [4],10
same,Crabgrass plant response rating,crabgrass; [5],0
same,Crabgrass plant response rating,crabgrass; [6],2
same,"Plant response rating (0 to 10; 0 is no effect, 10 is complete control), Crabgrass","crabgrass; Rate 250 g/ha, Postemergence",8
same,Crabgrass plant response rating,crabgrass; [7],8
same,S. Flatsedge plant response rating,smallflower flatsedge; [8],0
same,S. Flatsedge plant response rating,smallflower flatsedge; [9],0
same,"Plant response rating (0 to 10; 0 is no effect, 10 is complete control), S. Flatsedge",smallflower flatsedge; [10],2
same,S. Flatsedge plant response rating,smallflower flatsedge; [11],7
